Laboratory results from patent US10202412B2, “β-D-2′-deoxy-2′-substituted-4′-substituted-2-substituted-N6-substituted-6-aminopurinenucleotides for the treatment of paramyxovirus and orthomyxovirus infections” (Atea Pharmaceuticals, Inc., priority 2016, dated 2019).
Where two headings read alike, the source gives them in different places.

How the values were obtained:
Format in all cases: cell-based
[1] = test system: respiratory syncytial virus A2 (ATCC VR-1540); assay: Cytopathic effect assay with RSV A2 in MA-104 cells; conditions: human respiratory syncytial virus, MA104, CPE inhibition, neutral red
Method: Test compounds were dissolved in DMSO and then prepared in eight half-log dilutions in MEM medium with 50 μg/mL gentamicin and 2% FBS (MA-104 cells only). Each dilution was added to 5 wells of a 96-well plate with 80-100% confluent cells (either MA-104 cells or HEp-2 cells). Three wells of each dilution were infected with respiratory syncytial virus A2 (ATCC VR-1540) and two wells remained uninfected as toxicity controls. After maximum cytopathic effect (CPE) was observed microscopically in untreated virus control wells, plates were stained with neutral red dye for approximately 2 hours, then supernatant dye was removed and the incorporated dye was extracted in 50:50 Sorensen citrate buffer/ethanol and read on a spectrophotometer. Optical density values were normalized based on cell and virus controls, then the concentration of test compound required to inhibit CPE by 50% (EC50) was calculated by regression analysis. The reported EC50 value is the mean of at least two experiments. The concentration of compound that caused 50% CPE in the absence of virus was similarly calculated to determine cytotoxicity (CC50).

[2] = test system: Differentiated normal human bronchial epithelial (dNHBE) cells; assay: dNHBE assay: toxicity evaluated microscopically; parameters: unit not given here
Method: (§1) Differentiated normal human bronchial epithelial (dNHBE) cells were grown on 6 mm mesh disks in transwell inserts to approximately 1.2×10^6 cells/disk and disks were transferred to individual wells of a 6-well plate. 1 mL of proprietary culture medium was added to the basolateral side of the cells and the apical side was exposed to a humidified 95% air/5% CO2 environment. Cells were cultured at 37° C. for one day and then the mucin layer was removed from the apical side of the cells by repeated (3×) washing with 500 μL 30 mM HEPES buffered saline solution and culture medium on the basal side was replenished.
(§2) Various concentrations of test compounds in medium were applied in duplicate to the apical (140 μL) and basal sides (1 mL) for a 1 hour pre-treatment, followed by addition of 140 μL of virus inoculum to each cell insert on the apical side. The viral inoculum and treatments were removed after 2 hours. Control cells were treated with placebo (culture medium only). Following infection, the apical medium was removed and the basal side was replaced with fresh compound in medium. The cells were maintained at the air-liquid interface, and cell culture medium on the basal side was replaced daily with fresh medium containing test compound. After 4 days, the liquid was removed from the basal side and discarded and virus released into the apical compartment was harvested by the addition of 500 μL of culture medium. The medium was thoroughly mixed, then removed, diluted 1:1 with 40% sucrose and stored at ≤−80° C.
(§3) Concentrations of test compounds that reduced virus yield by 1 log10 (90% effective concentration; EC90) were calculated by regression analysis. The reported EC90 value is the mean of at least two experiments. Potential toxicity of the test compounds was evaluated microscopically.

[3] = test system: Respiratory syncytial virus (RSV) type A, strain A2 (ATCC VR-1540); assay: dNHBE assay: RSV virus yield reduction (EC90); conditions: human respiratory syncytial virus, RSV (A2) in dNHBE cells; concentration reducing virus yield by 1 log10; mean of at least two experiments
Method: as §1
Respiratory syncytial virus (RSV) type A, strain A2 (ATCC VR-1540), previously passaged in MA-104 cells to make working stock cultures, was diluted 1/10 in medium before infection, using a multiplicity of infection (MOI) of ≤0.03 CCID50 per cell.
as §2
To determine the virus titer from each treated cell culture, MA-104 cells were seeded in 96-well plates and grown overnight (37° C.) to confluence. Samples containing virus were diluted in 10-fold increments in infection medium and 200 μL of each dilution transferred into respective wells of a 96-well microtiter plate. Four microwells were used for each dilution to determine 50% viral endpoints. After 7 days of incubation, each well was scored positive for virus if any cytopathic effect was observed as compared with the uninfected control. The virus dose that was able to infect 50% of the cell cultures (CCID50 per 0.1 mL) was calculated by the Reed-Muench method. This was repeated in duplicate for each test sample, so that values reported are an average of 2 independent CCID5o determinations. Untreated, uninfected cell controls were tested as negative controls. Statistical differences in the titers were evaluated with a one-way analysis of variance (ANOVA) followed by Dunnett's multiple comparisons test compared with the untreated virus controls.
as §3

[4] = test system: human bone marrow progenitor cells (BFU-E); assay: Human bone marrow progenitor cell assay, BFU-E; conditions: BFU-E-specific culture, 14-day incubation, colony counts, read-out: Bone Marrow Stem Cell IC50 BFU-E
Method: (§4) Select compounds were tested in an in vitro selectivity study with human bone marrow progenitor cells. Fresh human bone marrow progenitor cells (Invitrogen) suspended in either BFU-E or GM-CSF-specific culture medium were added, at 10^5 cells/well, to triplicate serial dilutions of TA in 6-well plates. After 14-day incubations, colony counts were used to determine […] values. BFU-E colonies were confirmed using the benzidene technique. No cytotoxicity was observed from any of the tested compounds.

[5] = test system: human bone marrow progenitor cells (CFU-GM); assay: Human bone marrow progenitor cell assay, CFU-GM (GM-CSF-specific culture); conditions: 14-day incubation, colony counts, read-out: Bone Marrow Stem Cell IC50 CFU-GM
Method: as §4

iPS cardiomyocytes = assay: iPS cardiomyocyte assay (XTT viability); conditions: 72 h, 3 days incubation, XTT staining
Method: Select compounds were tested in an in vitro selectivity study with iPS cardiomyocytes. iPS cardiomyocytes (Cellular Dynamics) were seeded in microliter plates at 1.5×10^4 cells per well. After 48-hr incubation, cells were washed and maintenance medium containing 30 serially diluted TA was added in triplicate. After incubating for an additional 3 days, cellviability was measured by staining with XTT and CC50 values were calculated. No cytotoxicity was observed from any of the tested compounds.

| Compound | EC50 [1] [µM] | Visual toxicity [2] | EC90 [3] [µM] | further results |
| --- | --- | --- | --- | --- |
| CC(C)OC(=O)[C@H](C)NP(=O)(OC[C@@]1(CCl)O[C@@H](n2ccc(N)nc2=O)[C@H](F)C1O)Oc1ccccc1 (stereo in doubt) [Z] | > 177 | >177 | 2 | – |
| CN(C)c1nc(N)nc2c1ncn2[C@@H]1O[C@](C)(CO)[C@@H](O)[C@H]1F [A, (2R,3R,4R,5R)-5-(2-Amino-6-(dimethylamino)-9H-purin-9-yl)-4-fluoro-2-(hydroxymethyl)-2-methyltetrahydrofuran-3-ol] | > 306 | >306 | 142 | – |
| CNc1nc(F)nc2c1ncn2[C@@H]1O[C@](C)(CO[P@@](=O)(N[C@@H](C)C(=O)OC(C)C)Oc2ccccc2)[C@@H](O)[C@H]1F [AH, (S)-Isopropyl 2-(((S)-(((2R,3R,4R,5R)-5-(6-(methylamino)-2-fluoro-9H-purin-9-yl)-4-fluoro-3-hydroxy-2-methyltetrahydrofuran-2-yl)methoxy)(phenoxy)phosphoryl)amino) propanoate] | – | >1.7 | 0.12 | IC50 ([4]; Homo sapiens, 336 h): > 100 µM; IC50 ([5]; Homo sapiens, CFU-GM, 336 h): > 100 µM; IC50 (iPS cardiomyocytes): > 100 µM |
| CNc1nc(N)nc2c1ncn2[C@@H]1O[C@](CCl)(CO[P@@](=O)(N[C@@H](C)C(=O)OC(C)C)Oc2ccccc2)[C@@H](O)[C@H]1F [AI, (S)-Isopropyl 2-(((S)-(((2R,3R,4R,5R)-5-(2-amino-6-(methylamino)-9H-purin-9-yl)-2-(chloromethyl)-4-fluoro-3-hydroxytetrahydrofuran-2-yl)methoxy)(phenoxy)phosphoryl)amino) propanoate] | – | >1.6 | 0.13 | IC50 ([4]; Homo sapiens, 336 h): > 100 µM; IC50 ([5]; Homo sapiens, CFU-GM, 336 h): > 100 µM; IC50 (iPS cardiomyocytes): > 100 µM |
| Cc1cn([C@H]2C[C@H](N=[N+]=[N-])[C@@H](CO)O2)c(=O)[nH]c1=O [AZT, reference compound] | – | – | – | IC50 [4]: 2.59 µM; IC50 [5]: 4.56 µM |
| CC(C)OC(=O)[C@H](C)NP(=O)(OC[C@@]1(C)O[C@@H](n2cnc3c(N(C)C)nc(N)nc32)[C@H](F)[C@@H]1O)Oc1ccccc1 (stereo partly drawn) [B, (2S)-Isopropyl 2-(((((2R,3R,4R,5R)-5-(2-amino-6-(dimethylamino)-9H-purin-9-yl)-4-fluoro-3-hydroxy-2-methyltetrahydrofuran-2-yl)methoxy)(phenoxy)phosphoryl)-amino) propanoate] | < 168 | >167 | 5.9 | – |
| CN(C)c1nc(N)nc2c1ncn2[C@@H]1O[C@@](CO)(CCl)[C@@H](O)[C@H]1F [Compound K, (2R,3R,4R,5R)-5-(2-Amino-6-(dimethylamino)-9H-purin-9-yl)-2-(chloromethyl)-4-fluoro-2-(hydroxymethyl)tetrahydrofuran-3-ol] | > 225 | >277 | 74.8 | – |
| CC(C)OC(=O)[C@H](C)NP(=O)(OC[C@@]1(CCl)O[C@@H](n2cnc3c(N(C)C)nc(N)nc32)[C@H](F)[C@@H]1O)Oc1ccccc1 (stereo partly drawn) [Compound L, (2S)-Isopropyl 2-(((((2R,3R,4R,5R)-5-(2-amino-6-(dimethylamino)-9H-purin-9-yl)-2-(chloromethyl)-4-fluoro-3-hydroxytetrahydrofuran-2-yl)methoxy)(phenoxy)phosphoryl)amino)propanoate] | > 159 | 158 | 13.5 | – |
| CNc1nc(N)nc2c1ncn2[C@@H]1O[C@](CCl)(COP(=O)(N[C@@H](C)C(=O)OC(C)C)Oc2ccccc2)[C@@H](O)[C@H]1F (stereo partly drawn) [Compound N, (2S)-Isopropyl 2-(((((2R,3R,4R,5R)-5-(2-amino-6-(methylamino)-9H-purin-9-yl)-2-(chloromethyl)-4-fluoro-3-hydroxytetrahydrofuran-2-yl)methoxy)(phenoxy)-phosphoryl)amino)propanoate] | – | >162 | 0.83 | – |
| CC[C@]1(CO)O[C@@H](n2cnc3c(NC)nc(N)nc32)[C@H](F)[C@@H]1O [Compound Q, (2R,3R,4R,5R)-5-(2-Amino-6-(methylamino)-9H-purin-9-yl)-2-ethyl-4-fluoro-2-(hydroxymethyl)tetrahydrofuran-3-ol] | – | >306 | 7.3 | – |
| CC[C@]1(COP(=O)(N[C@@H](C)C(=O)OC(C)C)Oc2ccccc2)O[C@@H](n2cnc3c(NC)nc(N)nc32)[C@H](F)[C@@H]1O (stereo partly drawn) [Compound R, (2S)-Isopropyl 2-(((((2R,3R,4R,5R)-5-(2-amino-6-(methylamino)-9H-purin-9-yl)-2-ethyl-4-fluoro-3-hydroxytetrahydrofuran-2-yl)methoxy)(phenoxy)-phosphoryl)amino) propanoate] | – | >167 | 2.3 | – |
| CN(C)c1nc(N)nc2c1ncn2[C@@H]1O[C@](C)(CO)[C@@H](O)[C@@H]1F [Compound S] | > 306 | >307 | > 300 | – |
| CC[C@]1(CO)O[C@@H](n2cnc3c(N(C)C)nc(N)nc32)[C@@H](F)[C@@H]1O [Compound U, (2R,3R,4S,5R)-5-(2-Amino-6-(dimethylamino)-9H-purin-9-yl)-2-ethyl-4-fluoro-2-(hydroxymethyl)tetrahydrofuran-3-ol] | > 294 | >294 | > 294 | – |
| CC[C@]1(COP(=O)(N[C@@H](C)C(=O)OC(C)C)Oc2ccccc2)O[C@@H](n2cnc3c(N(C)C)nc(N)nc32)[C@@H](F)[C@@H]1O (stereo partly drawn) [Compound V, (2S)-Isopropyl 2-(((((2R,3R,4S,5R)-5-(2-amino-6-(dimethylamino)-9H-purin-9-yl)-2-ethyl-4-fluoro-3-hydroxytetrahydrofuran-2-yl)methoxy)(phenoxy)phosphoryl)-amino) propanoate] | > 164 | 164 | 44.8 | – |
| COc1cc2nc(N3CCN(C(=O)C4COc5ccccc5O4)CC3)nc(N)c2cc1OC (stereo not drawn) [Doxazosin, reference compound] | – | – | – | IC50 (iPS cardiomyocytes): 12.5 µM |
| CC(C)C(=O)Nc1nc(N(C)C)c2ncn([C@@H]3O[C@@](CO)(CCl)[C@@H](O)[C@H]3F)c2n1 [X] | > 232 | – | – | – |
| CC(C)OC(=O)[C@H](C)NP(=O)(OC[C@@]1(CCl)O[C@@H](n2cnc3c(N(C)C)nc(NC(=O)C(C)C)nc32)[C@H](F)[C@@H]1O)Oc1ccccc1 (stereo partly drawn) [Y] | > 142 | – | – | – |
